Settings: rat, 6 hours after electroporation treatment, 800 V/cm, 12 pulses of 250 μs length
Description: FIG. 3 schematically illustrates a Gamma Camera image of a rat taken 6 hours after an electroporation treatment with electrical field strength of 800 V/cm and 12 pulses of 250 μs length. […] In FIG. 3, the injection site, the electroporation site and three reference sites are shown.
Further, investigation of the effect of applied electric pulses of 600, 800, 1000, 1200 V/cm; having 100 and 500 μs pulse length, and 2, 4, 6 or 12 pulses, on the accumulation of the radiolabeled pharmaceutical ^99mTc-DTPA that mimics the Bleomycin, in rat muscular tissue after in vivo electro-permeabilization has been performed. Gamma camera measurements is applied to noninvasively quantify the accumulation of ^99mTc-DTPA in the region treated with electrical pulses as previously described.

O=C([O-])CN(CCN(CC(=O)[O-])CC(=O)[O-])CCN(CC(=O)[O-])CC(=O)[O-].[99Tc+4] [99Tcm-DTPA, 99Tcm- diethylene-triamine-penta-acetic-acid]
activity in the electroporated site (Gamma Camera image): high activity
activity in the reference sites (Gamma Camera image): low activity

Source: patent publication US11400283B2, “Pulse generating device for delivery of electrical pulses to a desired tissue of a mammal” (SC[…] AB, priority 2017, dated 2022)
